Source: ChEMBL document CHEMBL1255340, “In vitro activities of the Rx-01 oxazolidinones against hospital and community pathogens” (2008)
Values after ≈ are worked out from the molar mass of the structure shown. Values joined by “and” are separate entries in the source; they are usually repeats but may differ in a detail not shown here. Equal entries are not always repeated.

Legend:
Type in all cases: functional
[1] = tested on: Metamycoplasma hominis; test: Antimicrobial activity against Mycoplasma hominis isolated from human respiratory tract by broth microdilution method
[2] = tested on: Chlamydia trachomatis; test: Antimicrobial activity against Chlamydia trachomatis isolated from human respiratory tract by broth microdilution method
[3] = tested on: Chlamydia pneumoniae; test: Antimicrobial activity against Chlamydophila pneumoniae isolated from human respiratory tract by broth microdilution method

Question: Which results are given for CC[C@H]1OC(=O)[C@H](C)[C@@H](O[C@H]2C[C@@](C)(OC)[C@@H](O)[C@H](C)O2)[C@H](C)[C@@H](O[C@@H]2O[C@H](C)C[C@H](N(C)C)[C@H]2O)[C@](C)(O)C[C@@H](C)C(=O)[C@H](C)[C@@H](O)[C@]1(C)O [ERYTHROMYCIN]?
Answer: MIC [1]: 16 µg/mL and 32 µg/mL; MIC [2]: 0.12 µg/mL and 0.25 µg/mL; MIC [3]: 0.5 µg/mL (≈ 0.681 µM)
